In the Kinase Knowledgebase extract (Sharma et al. 2016):

The compounds below were run against EGFR (human) (UniProt P00533). Conditions: a431.
Sequence of EGFR (human) (P00533 whole entry, looked up): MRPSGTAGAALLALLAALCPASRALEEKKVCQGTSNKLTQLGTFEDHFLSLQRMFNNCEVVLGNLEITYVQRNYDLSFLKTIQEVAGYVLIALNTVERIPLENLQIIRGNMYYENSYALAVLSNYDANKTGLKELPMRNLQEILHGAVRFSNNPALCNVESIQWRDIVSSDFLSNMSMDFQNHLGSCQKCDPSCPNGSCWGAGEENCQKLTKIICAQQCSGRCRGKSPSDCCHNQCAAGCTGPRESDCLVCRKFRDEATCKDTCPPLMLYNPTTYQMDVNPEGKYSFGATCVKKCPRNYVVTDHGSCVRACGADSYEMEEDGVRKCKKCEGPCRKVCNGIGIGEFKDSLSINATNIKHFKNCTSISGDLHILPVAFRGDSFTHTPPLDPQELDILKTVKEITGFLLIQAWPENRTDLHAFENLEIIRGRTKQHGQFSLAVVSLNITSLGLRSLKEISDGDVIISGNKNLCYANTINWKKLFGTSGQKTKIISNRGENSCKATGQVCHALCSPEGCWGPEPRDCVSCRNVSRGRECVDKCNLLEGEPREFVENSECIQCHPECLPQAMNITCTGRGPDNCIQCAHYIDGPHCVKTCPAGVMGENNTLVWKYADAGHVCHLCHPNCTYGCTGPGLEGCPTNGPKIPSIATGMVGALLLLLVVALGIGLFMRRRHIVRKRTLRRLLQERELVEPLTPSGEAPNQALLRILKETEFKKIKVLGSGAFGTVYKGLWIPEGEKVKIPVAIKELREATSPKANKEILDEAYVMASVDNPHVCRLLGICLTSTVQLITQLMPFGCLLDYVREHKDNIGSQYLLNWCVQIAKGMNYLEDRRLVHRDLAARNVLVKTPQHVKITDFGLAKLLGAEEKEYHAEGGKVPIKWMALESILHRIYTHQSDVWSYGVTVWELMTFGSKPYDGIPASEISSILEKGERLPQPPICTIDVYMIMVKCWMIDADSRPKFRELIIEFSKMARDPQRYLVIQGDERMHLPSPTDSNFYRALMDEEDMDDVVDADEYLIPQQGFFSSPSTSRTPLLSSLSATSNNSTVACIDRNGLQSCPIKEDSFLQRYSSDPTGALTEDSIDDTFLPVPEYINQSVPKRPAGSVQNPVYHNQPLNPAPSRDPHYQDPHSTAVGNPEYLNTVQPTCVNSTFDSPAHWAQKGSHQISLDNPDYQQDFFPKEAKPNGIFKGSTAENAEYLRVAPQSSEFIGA

Row | SMILES | IC50
1 | CCCCc1ccc(C(=O)c2ccc(Oc3ccnc4cc(OC)c(OC)cc34)cc2)cc1 | > 100 µM
2 | COc1cc2nccc(Oc3ccc(C(=O)c4ccc(C(F)(F)F)cc4)cc3)c2cc1OC | > 100 µM
3 | COc1cc2nccc(Oc3cccc(C(=O)c4ccccc4)c3)c2cc1OC | 89 µM
4 | COc1cc2nccc(Oc3cccc([N+](=O)[O-])c3)c2cc1OC | 35 µM
5 | COc1cc2nccc(Oc3ccc(C(=O)c4ccc(C(C)(C)C)cc4)cc3)c2cc1OC | > 100 µM
6 | COc1cc2nccc(Oc3ccc(C(=O)c4ccc(F)cc4)cc3)c2cc1OC | 75 µM
7 | COc1cc(OC)cc(Oc2ccnc3cc(OC)c(OC)cc23)c1 | 49 µM
8 | COc1cc2nccc(Oc3ccc(C(C)=O)cc3)c2cc1OC | > 100 µM
9 | COc1cc2nccc(Oc3ccc(C(=O)c4ccc(Cl)c(Cl)c4)cc3)c2cc1OC | 31 µM
10 | COC(=O)c1cccc(Oc2ccnc3cc(OC)c(OC)cc23)c1 | > 100 µM
11 | COc1cc2nccc(Oc3ccc(C(=O)c4ccc(I)cc4)cc3)c2cc1OC | > 100 µM
12 | COc1cc2nccc(Oc3ccc(C(=O)c4ccccc4C)cc3)c2cc1OC | 43 µM
13 | COc1cc2nccc(Oc3ccc(NC(=O)C4CCCC4)cc3)c2cc1OC | > 100 µM
14 | COc1cc2nccc(Oc3ccc(O)cc3)c2cc1OC | 16 µM
15 | COc1cc2nccc(Oc3ccc(NC(=O)c4ccc(-c5ccccc5)cc4)cc3)c2cc1OC | > 100 µM
16 | COc1cc2nccc(Oc3ccc(C(=O)c4ccc(-c5ccccc5)cc4)cc3)c2cc1OC | > 100 µM
17 | COc1ccc(C(=O)Nc2ccc(Oc3ccnc4cc(OC)c(OC)cc34)cc2)cc1OC | > 100 µM
18 | COc1cc2nccc(Oc3ccc(C(=O)c4cccc(C)c4)cc3)c2cc1OC | 95 µM
19 | COc1cc2nccc(Oc3cccc(C)c3)c2cc1OC | 14 µM
20 | COc1cc2nccc(Oc3ccc(C(=O)c4ccc(OC(F)(F)F)cc4)cc3)c2cc1OC | > 100 µM

Row | SMILES | IC50
21 | COc1cc2nccc(Oc3ccc(C(=O)c4ccccc4)cc3)c2cc1OC | 50 µM
22 | COc1ccc(Oc2ccnc3cc(OC)c(OC)cc23)cc1 | 44 µM
23 | CCCCc1ccc(C(=O)Nc2ccc(Oc3ccnc4cc(OC)c(OC)cc34)cc2)cc1 | > 100 µM
24 | COc1cc2nccc(Oc3ccc(C(=O)c4ccc(Cl)cc4)cc3)c2cc1OC | > 100 µM
25 | COc1cc2nccc(Oc3cccc(O)c3)c2cc1OC | 19 µM
26 | COc1cc2nccc(Oc3ccc(C(=O)c4ccc([N+](=O)[O-])cc4)cc3)c2cc1OC | > 100 µM
27 | COc1cc2nccc(Oc3ccc(NC(=O)c4ccc([N+](=O)[O-])cc4)cc3)c2cc1OC | > 100 µM
28 | COc1cc2nccc(Oc3ccc(NC(=O)c4cccs4)cc3)c2cc1OC | > 100 µM
29 | COc1cc2nccc(Oc3ccc(C(=O)c4ccccc4C(F)(F)F)cc3)c2cc1OC | 21 µM
30 | COc1cc2nccc(Oc3ccc(C(=O)C4CCCCC4)cc3)c2cc1OC | > 100 µM
31 | COc1cc2nccc(Oc3ccccc3)c2cc1OC | 50 µM
32 | COc1cc2nccc(Oc3ccc(C(=O)c4cccs4)cc3)c2cc1OC | 16 µM
33 | COc1cc2nccc(Oc3ccc(NC(=O)c4ccc(C(C)(C)C)cc4)cc3)c2cc1OC | > 100 µM
34 | COc1cc2nccc(Oc3ccc(C(=O)c4ccco4)cc3)c2cc1OC | > 100 µM
35 | COc1cc2nccc(Oc3cccc(OC)c3OC)c2cc1OC | > 100 µM
36 | COc1cc2nccc(Oc3ccc(N(C)C(=O)c4ccc(C(C)(C)C)cc4)cc3)c2cc1OC | 6 µM
37 | COc1cc2nccc(Oc3ccc(C(=O)c4cccc(F)c4)cc3)c2cc1OC | 28 µM
38 | COc1cccc(Oc2ccnc3cc(OC)c(OC)cc23)c1 | 18 µM
39 | COc1cc2nccc(Oc3ccc(NC(=O)c4ccc(C(F)(F)F)cc4)cc3)c2cc1OC | 93 µM
40 | COc1cc2nccc(Oc3ccc(C(=O)c4ccc(C#N)cc4)cc3)c2cc1OC | > 100 µM

Row | SMILES | IC50
41 | COc1cc2nccc(Oc3ccc(C(=O)c4ccc(Br)cc4)cc3)c2cc1OC | > 100 µM
42 | COc1cc2nccc(Oc3ccccc3OC)c2cc1OC | 92 µM
43 | COc1cc2nccc(Oc3ccc(C(=O)Nc4ccc(C(C)(C)C)cc4)cc3)c2cc1OC | 30 µM
44 | COc1cc2nccc(Oc3ccc(C(=O)c4ccc(C)cc4)cc3)c2cc1OC | > 100 µM
45 | COc1cc2nccc(Oc3ccc(NC(=O)c4ccc(C(C)=O)cc4)cc3)c2cc1OC | > 100 µM
46 | COc1cc2nccc(Oc3cccc(C(C)=O)c3)c2cc1OC | > 100 µM
47 | COc1cc2nccc(Oc3cccc(F)c3)c2cc1OC | 24 µM
48 | COc1cc2nccc(Oc3c(OC)cccc3OC)c2cc1OC | 81 µM
49 | COc1cc2nccc(Oc3ccc(NC(=O)c4ccco4)cc3)c2cc1OC | > 100 µM
50 | COc1cc2nccc(Oc3ccc(NC(=O)c4ccc(Br)cc4)cc3)c2cc1OC | 48 µM
51 | COc1cc2nccc(Oc3cccc(N)c3)c2cc1OC | 40 µM
52 | COc1cc2nccc(Oc3ccc(C(=O)c4cccc(C(F)(F)F)c4)cc3)c2cc1OC | > 100 µM
53 | COc1cc2nccc(Oc3ccc(NC(=O)C4CCCCC4)cc3)c2cc1OC | > 100 µM
54 | COc1cc2nccc(Oc3ccc(Br)cc3)c2cc1OC | 20 µM
55 | COc1cc2nccc(Oc3ccccc3N)c2cc1OC | < 10 µM
56 | COc1cc2nccc(Oc3ccccc3C(=O)c3ccccc3)c2cc1OC | 14 µM
57 | COc1cc2nccc(Oc3ccc(NC(C)=O)cc3)c2cc1OC | > 100 µM
58 | CCCCOc1ccc(C(=O)Nc2ccc(Oc3ccnc4cc(OC)c(OC)cc34)cc2)cc1 | > 100 µM
59 | COc1cc2nccc(Oc3ccc(N)cc3)c2cc1OC | > 100 µM
60 | COc1cc2nccc(Oc3cccc(NC(=O)c4ccc(C(C)(C)C)cc4)c3)c2cc1OC | 0.65 µM

What follows are compounds tested against EGFR (UniProt P00533). Conditions: not given.
Sequence of EGFR (P00533 whole entry, looked up): as above

Row | SMILES | IC50
61 | COc1cc2nccc(Oc3ccc(C(=O)c4ccc(C(C)(C)C)cc4)cc3)c2cc1OC | > 100 µM
62 | COc1cc2nccc(Oc3ccc(NC(=O)c4ccc(C(C)(C)C)cc4)cc3)c2cc1OC | > 100 µM
